Laboratory results: patent publication US12599672B2, “KRAS proteolysis targeting chimeras” (PAQ Therapeutics Inc., priority 2023, dated 2026)

Key:
Assay type in all cases: cell-based
[1] = biological target: T1, KRAS G12D (Homo sapiens, UniProt P01116, G12D); assay: KRAS G12D HiBit assay; details: AsPc-1-KRAS (G12D)-HiBit-KI cell, compound treatment for 24 hours; for DC50: absolute DC50
T1 construct: AsPc-1-KRAS (G12D)-HiBit-KI cell (Pharmaron); host or cells: AsPc-1-KRAS (G12D)-HiBit-KI cells (HiBiT knock-in at the endogenous KRAS locus)
T1 sequence (P01116 1-188 isoform P01116-2 G12D): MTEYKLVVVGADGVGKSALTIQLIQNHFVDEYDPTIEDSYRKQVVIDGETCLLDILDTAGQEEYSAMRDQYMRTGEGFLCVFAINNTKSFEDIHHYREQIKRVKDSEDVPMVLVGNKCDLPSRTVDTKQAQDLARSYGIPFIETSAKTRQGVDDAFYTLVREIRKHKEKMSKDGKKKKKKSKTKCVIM
Method in brief: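 HiBiT luminescence, detected by adding lytic buffer, substrate and LgBiT protein, served as the KRAS G12D read-out. Compounds, serially diluted 3-fold over 10 points from 0.3 mM DMSO stock, were on cells for 24 h; percent inhibition normalized to cells given 0.1% DMSO only.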

[2] = biological target: T2, KRAS G12V (Homo sapiens, UniProt P01116, G12V); assay: KRAS G12V HiBit assay; details: SW620-KRAS (G12V)-HiBit-KI cells, compound treatment for 24 hours, class symbols
T2 construct: SW620-KRAS (G12V)-HiBit-KI cell (Pharmaron); host or cells: SW620-KRAS (G12V)-HiBit-KI cells (HiBiT knock-in at the endogenous KRAS locus)
T2 sequence (P01116 1-188 isoform P01116-2 G12V): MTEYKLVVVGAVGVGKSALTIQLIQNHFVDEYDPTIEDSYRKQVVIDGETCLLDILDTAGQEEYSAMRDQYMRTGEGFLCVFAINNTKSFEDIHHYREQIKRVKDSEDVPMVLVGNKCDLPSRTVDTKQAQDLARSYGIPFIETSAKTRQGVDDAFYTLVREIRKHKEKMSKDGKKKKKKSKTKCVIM
Method in brief: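 Luminescence from lytic Nano-Glo HiBiT detection with LgBiT read KRAS G12V levels after 24 h compound exposure. Dilutions were 10-point, 3-fold, from a 0.3 mM DMSO stock. Degradation activity was normalised to cells given 0.1% DMSO alone.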

[3] = biological target: T3, KRAS (Homo sapiens, UniProt P01116); assay: KRASamp MSD assay; details: KE39 (KRAS amplified) cells, treated with test compounds for 24 hr, MSD readout of KRAS degradation
T3 construct: endogenous in cells; host or cells: KE39 (KRAS amplified) cells
T3 sequence (P01116 1-188 isoform P01116-2): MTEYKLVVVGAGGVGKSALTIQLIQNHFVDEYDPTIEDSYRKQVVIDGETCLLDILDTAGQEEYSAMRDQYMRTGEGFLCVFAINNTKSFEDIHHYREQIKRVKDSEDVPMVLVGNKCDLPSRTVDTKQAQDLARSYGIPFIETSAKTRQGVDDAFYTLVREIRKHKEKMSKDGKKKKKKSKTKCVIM
Method in brief: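 Degradation DC50 derived by curve fitting, with KRAS levels quantified by MSD electrochemiluminescence (capture/detection antibodies, recombinant WT KRAS standard). Lysates prepared from KE39 cells (KRAS amplified) exposed to test compounds for 24 hr.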

DC50 ([1]; class symbols) [nM]	DC50 [2] [nM]	DC50 [3] [nM]	Dmax ([1]; class symbols) [%]	DC50 ([1]; numeric bounds given in place of class symbols) [nM]	SMILES
< 100	< 10	< 1	–	–	C#Cc1c(F)ccc2cc(O)cc(-c3ccc4c(N5CCC[C@@](C)(O)C5)nc(OCC5(CN6CCC(CN7CCC(c8ccc9c(c8)n(C)c(=O)n9C8CCC(=O)NC8=O)CC7)CC6)CC5)nc4c3F)c12 (stereo partly shown) [Compound 13]
< 100	< 10	< 1	–	–	CCc1c(F)ccc2cc(O)cc(-c3ncc4c(N5CCC[C@@](C)(O)C5)nc(OC[C@@]56CCCN5[C@H](COC(=O)N5CC7(CCN(CC#Cc8ccc9c(c8)n(C)c(=O)n9C8CCC(=O)NC8=O)CC7)C5)CC6)nc4c3F)c12 (stereo partly drawn) [Compound 453, ((3S,7aS)-7a-(((7-(8-Ethyl-7-fluoro-3-hydroxynaphthalen-1-yl)-8-fluoro-4-((R)-3-hydroxy-3-methylpiperidin-1-yl)pyrido[4,3-d]pyrimidin-2-yl)oxy)methyl)hexahydro-1H-pyrrolizin-3-yl)methyl 7-(3-(1-(2,6-dioxopiperidin-3-yl)-3-methyl-2-oxo-2,3-dihydro-1H-benzo[d]imidazol-5-yl)prop-2-yn-1-yl)-2,7-diazaspiro[3.5]nonane-2-carboxylate]
< 100	< 10	< 1	> 50	–	CCc1c(F)ccc2cc(O)cc(-c3ncc4c(N5CCC[C@@](C)(O)C5)nc(OC[C@@]56CCCN5[C@H](COC(=O)N5CCC(CC7CCN(c8ccc9c(c8)n(C)c(=O)n9C8CCC(=O)NC8=O)CC7)CC5)CC6)nc4c3F)c12 (stereo partly drawn) [Compound 98, [(3S,8S)-8-[[7-(8-ethyl-7-fluoro-3-hydroxy-1-naphthyl)-8-fluoro-4-[(3R)-3-hydroxy-3-methyl-1-piperidyl]pyrido[4,3-d]pyrimidin-2-yl]oxymethyl]-1,2,3,5,6,7-hexahydropyrrolizin-3-yl]methyl 4-[[1-[1-(2,6-dioxo-3-piperidyl)-3-methyl-2-oxo-benzimidazol-5-yl]-4-piperidyl]methyl]piperidine-1-carboxylate]
< 100	< 10	< 1	–	–	C#Cc1c(F)ccc2cc(O)cc(-c3ncc4c(N5CCC[C@@](C)(O)C5)nc(OC[C@@]56CCCN5[C@H](COC(=O)N5CC7(CC(N8CCC(c9ccc%10c(c9)n(C)c(=O)n%10C9CCC(=O)NC9=O)CC8)C7)C5)CC6)nc4c3F)c12 (stereo partly drawn) [Compound 419, ((3S,7aS)-7a-(((7-(8-ethynyl-7-fluoro-3-hydroxynaphthalen-1-yl)-8-fluoro-4-((R)-3-hydroxy-3-methylpiperidin-1-yl)pyrido[4,3-d]pyrimidin-2-yl)oxy)methyl)hexahydro-1H-pyrrolizin-3-yl)methyl 6-(4-(1-(2,6-dioxopiperidin-3-yl)-3-methyl-2-oxo-2,3-dihydro-1H-benzo[d]imidazol-5-yl)piperidin-1-yl)-2-azaspiro[3.3]heptane-2-carboxylate]
< 100	< 10	< 1	–	–	CCc1c(F)ccc2cc(O)cc(-c3ncc4c(N5CCC[C@@](C)(O)C5)nc(OC[C@]56CCCN5[C@@H](COC(=O)N5CCC(CN7CCC(c8cc9c(cc8F)n(C8CCC(=O)NC8=O)c(=O)n9C)CC7)CC5)CC6)nc4c3F)c12 (stereo partly drawn) [Compound 425, ((3R,7aR)-7a-(((7-(8-ethyl-7-fluoro-3-hydroxynaphthalen-1-yl)-8-fluoro-4-((R)-3-hydroxy-3-methylpiperidin-1-yl)pyrido[4,3-d]pyrimidin-2-yl)oxy)methyl)hexahydro-1H-pyrrolizin-3-yl)methyl 4-((4-(1-(2,6-dioxopiperidin-3-yl)-6-fluoro-3-methyl-2-oxo-2,3-dihydro-1H-benzo[d]imidazol-5-yl)piperidin-1-yl)methyl)piperidine-1-carboxylate]
< 100	< 10	< 1	–	–	CCc1c(F)ccc2cc(O)cc(-c3cc4nc(OC[C@@]56CCCN5[C@H](COC(=O)N5CCC7(CC5)CC(N5CCC(c8ccc9c(c8)n(C)c(=O)n9C8CCC(=O)NC8=O)CC5)C7)CC6)nc(N5CCC[C@@](C)(O)C5)c4cn3)c12 (stereo partly drawn) [Compound 461, ((3S,7aS)-7a-(((7-(8-ethyl-7-fluoro-3-hydroxynaphthalen-1-yl)-4-((R)-3-hydroxy-3-methylpiperidin-1-yl)pyrido[4,3-d]pyrimidin-2-yl)oxy)methyl)hexahydro-1H-pyrrolizin-3-yl)methyl 2-(4-(1-(2,6-dioxopiperidin-3-yl)-3-methyl-2-oxo-2,3-dihydro-1H-benzo[d]imidazol-5-yl)piperidin-1-yl)-7-azaspiro[3.5]nonane-7-carboxylate]
< 100	> 100	≥ 10	–	–	C#Cc1c(F)ccc2cc(O)cc(-c3ncc4c(N5CCC[C@@](C)(O)C5)nc(OC[C@@]56CCCN5[C@H](COC(=O)N5CCC7(CCC7N7CCC(c8ccc9c(c8)n(C)c(=O)n9C8CCC(=O)NC8=O)CC7)CC5)CC6)nc4c3F)c12 (stereo partly drawn) [Compound 415, ((3S,7aS)-7a-(((7-(8-ethynyl-7-fluoro-3-hydroxynaphthalen-1-yl)-8-fluoro-4-((R)-3-hydroxy-3-methylpiperidin-1-yl)pyrido[4,3-d]pyrimidin-2-yl)oxy)methyl)hexahydro-1H-pyrrolizin-3-yl)methyl 1-(4-(1-(2,6-dioxopiperidin-3-yl)-3-methyl-2-oxo-2,3-dihydro-1H-benzo[d]imidazol-5-yl)piperidin-1-yl)-7-azaspiro[3.5]nonane-7-carboxylate]
< 100	10 to 100	1 to 10	–	–	CCc1c(F)ccc2cc(O)cc(-c3ncc4c(N5CCC[C@@](C)(O)C5)nc(OC[C@@]56CCCN5[C@H](CN5CCC(CN7CCC(Cc8ccc9c(c8)n(C)c(=O)n9C8CCC(=O)NC8=O)CC7)CC5)CC6)nc4c3F)c12 (stereo partly drawn) [Compound 436, 3-(5-((1-((1-(((3S,7aS)-7a-(((7-(8-ethyl-7-fluoro-3-hydroxynaphthalen-1-yl)-8-fluoro-4-((R)-3-hydroxy-3-methylpiperidin-1-yl)pyrido[4,3-d]pyrimidin-2-yl)oxy)methyl)hexahydro-1H-pyrrolizin-3-yl)methyl)piperidin-4-yl)methyl)piperidin-4-yl)methyl)-3-methyl-2-oxo-2,3-dihydro-1H-benzo[d]imidazol-1-yl)piperidine-2,6-dione]
< 100	10 to 100	1 to 10	–	–	CCc1c(F)ccc2cc(O)cc(-c3ncc4c(N5CCC[C@@](C)(O)C5)nc(OC[C@]56CCCN5[C@H](CCCN5CCC(c7ccc8c(c7)n(C)c(=O)n8C7CCC(=O)NC7=O)CC5)CC6)nc4c3F)c12 (stereo partly drawn) [Compound 473, 3-(5-(1-(3-((3R,7aR)-7a-(((7-(8-Ethyl-7-fluoro-3-hydroxynaphthalen-1-yl)-8-fluoro-4-((R)-3-hydroxy-3-methylpiperidin-1-yl)pyrido[4,3-d]pyrimidin-2-yl)oxy)methyl)hexahydro-1H-pyrrolizin-3-yl)propyl)piperidin-4-yl)-3-methyl-2-oxo-2,3-dihydro-1H-benzo[d]imidazol-1-yl) piperidine-2,6-dione]
< 100	< 10	1 to 10	–	–	C#Cc1c(F)ccc2cc(O)cc(-c3ncc4c(N5CCC[C@@](C)(O)C5)nc(OC[C@@]56CCCN5[C@H](COC(=O)N5CCC(CC#Cc7ccc8c(c7)n(C)c(=O)n8C7CCC(=O)NC7=O)CC5)CC6)nc4c3F)c12 (stereo partly drawn) [Compound 375, ((3S,7aS)-7a-(((7-(8-ethynyl-7-fluoro-3-hydroxynaphthalen-1-yl)-8-fluoro-4-((R)-3-hydroxy-3-methylpiperidin-1-yl)pyrido[4,3-d]pyrimidin-2-yl)oxy)methyl)hexahydro-1H-pyrrolizin-3-yl)methyl 4-(3-(1-(2,6-dioxopiperidin-3-yl)-3-methyl-2-oxo-2,3-dihydro-1H-benzo[d]imidazol-5-yl)prop-2-yn-1-yl)piperidine-1-carboxylate]
–	> 100	≥ 10	–	> 100	CCc1c(F)ccc2cc(O)cc(-c3ncc4c(N5CCC[C@@](C)(O)C5)nc(OC[C@@]56CCCN5[C@@H](COC(=O)N5CCC(CCCOc7ccc8c(c7)n(C)c(=O)n8C7CCC(=O)NC7=O)CC5)CC6)nc4c3F)c12 (stereo partly drawn) [Compound 316, ((3R,7aS)-7a-(((7-(8-ethyl-7-fluoro-3-hydroxynaphthalen-1-yl)-8-fluoro-4-((R)-3-hydroxy-3-methylpiperidin-1-yl)pyrido[4,3-d]pyrimidin-2-yl)oxy)methyl)hexahydro-1H-pyrrolizin-3-yl)methyl 4-(3-((1-(2,6-dioxopiperidin-3-yl)-3-methyl-2-oxo-2,3-dihydro-1H-benzo[d]imidazol-5-yl)oxy)propyl)piperidine-1-carboxylate]
< 100	< 10	1 to 10	–	–	C#Cc1c(F)ccc2cc(O)cc(-c3ncc4c(N5CCC[C@@](C)(O)C5)nc(OC[C@@]56CCCN5[C@H](COC(=O)N5CCC(COC7CN(c8ccc9c(c8)n(C)c(=O)n9C8CCC(=O)NC8=O)C7)CC5)CC6)nc4c3F)c12 (stereo partly shown) [Compound 132]
